Values quoted from earlier work, collected in patent US5268391A, “Propargyl-terminated cycloalkylalkyl-P2-site substituted aryl/alkylsulfonyl-terminated alanine amino-diol compounds for treatment of hypertension” (C. D. Searle & Co., priority 1992, dated 1993).
Where a SMILES comes first, the peptide text is derived from it. [ ]: non-standard residue; d: D form. The star is where a group is joined. Sta = CC(C)C[C@H](N)[C@@H](O)CC(=O)O; Isovaleryl = CC(C)CC(=O)*

System: hog renin
Details: after the injection of hog renin into nephrectomized rats

SMILES: CC(C)CC(=O)N[C@H](C(=O)N[C@H](C(=O)N[C@@H](CC(C)C)[C@@H](O)CC(=O)N[C@@H](C)C(=O)N[C@@H](CC(C)C)[C@@H](O)CC(=O)O)C(C)C)C(C)C [pepstatin] (Isovaleryl-VV[Sta]A[Sta]-OH)
- blood pressure in vivo: reduce blood pressure
